From patent publication US20250292865A1, “DETERMINING BIOLOGICAL PARAMETERS OF A CELL” (THE UNIVERSITY OF BATH, priority 2022, published 2025)

How the values were obtained:
A-type K+ ion channel = test: Data assimilation of CA1 neuron current clamp recordings: predicted charge through A-type K+ channel before and after drug; assay type: cell-based, rodent
A-type [Kv1.4] = A-type [Kv1.4] (Homo sapiens, UniProt P22459); settings: 300 μM; A-type [Kv1.4] selectively expressed in xenopus oocytes; cited from earlier work
A-type [Kv4.2] = target: T1, A-type [Kv4.2] (Homo sapiens, UniProt Q9NZV8); settings: 300 μM; A-type [Kv4.2] selectively expressed in xenopus oocytes; cited from earlier work
T1 sequence (Q9NZV8 1-630): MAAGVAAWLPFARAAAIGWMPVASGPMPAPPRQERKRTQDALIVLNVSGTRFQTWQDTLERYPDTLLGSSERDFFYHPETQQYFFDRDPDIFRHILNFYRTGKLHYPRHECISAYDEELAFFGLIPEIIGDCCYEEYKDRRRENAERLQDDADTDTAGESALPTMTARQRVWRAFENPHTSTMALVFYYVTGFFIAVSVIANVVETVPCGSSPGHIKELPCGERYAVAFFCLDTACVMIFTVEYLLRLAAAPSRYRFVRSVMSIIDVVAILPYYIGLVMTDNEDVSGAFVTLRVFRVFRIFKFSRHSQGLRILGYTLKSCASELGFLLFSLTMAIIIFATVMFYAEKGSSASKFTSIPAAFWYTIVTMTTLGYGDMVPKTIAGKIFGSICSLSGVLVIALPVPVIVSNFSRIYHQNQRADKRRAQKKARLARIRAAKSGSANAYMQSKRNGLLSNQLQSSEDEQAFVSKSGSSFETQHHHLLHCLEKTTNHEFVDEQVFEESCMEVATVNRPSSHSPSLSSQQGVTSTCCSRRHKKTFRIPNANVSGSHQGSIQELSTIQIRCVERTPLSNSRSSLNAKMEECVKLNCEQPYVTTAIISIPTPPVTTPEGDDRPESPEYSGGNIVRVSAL

HCN1 = target: T2, HCN1 (Homo sapiens, UniProt O60741); settings: 50 μM; HCN1 selectively expressed in HEK293 cells; cited from earlier work
T2 sequence (O60741 1-890): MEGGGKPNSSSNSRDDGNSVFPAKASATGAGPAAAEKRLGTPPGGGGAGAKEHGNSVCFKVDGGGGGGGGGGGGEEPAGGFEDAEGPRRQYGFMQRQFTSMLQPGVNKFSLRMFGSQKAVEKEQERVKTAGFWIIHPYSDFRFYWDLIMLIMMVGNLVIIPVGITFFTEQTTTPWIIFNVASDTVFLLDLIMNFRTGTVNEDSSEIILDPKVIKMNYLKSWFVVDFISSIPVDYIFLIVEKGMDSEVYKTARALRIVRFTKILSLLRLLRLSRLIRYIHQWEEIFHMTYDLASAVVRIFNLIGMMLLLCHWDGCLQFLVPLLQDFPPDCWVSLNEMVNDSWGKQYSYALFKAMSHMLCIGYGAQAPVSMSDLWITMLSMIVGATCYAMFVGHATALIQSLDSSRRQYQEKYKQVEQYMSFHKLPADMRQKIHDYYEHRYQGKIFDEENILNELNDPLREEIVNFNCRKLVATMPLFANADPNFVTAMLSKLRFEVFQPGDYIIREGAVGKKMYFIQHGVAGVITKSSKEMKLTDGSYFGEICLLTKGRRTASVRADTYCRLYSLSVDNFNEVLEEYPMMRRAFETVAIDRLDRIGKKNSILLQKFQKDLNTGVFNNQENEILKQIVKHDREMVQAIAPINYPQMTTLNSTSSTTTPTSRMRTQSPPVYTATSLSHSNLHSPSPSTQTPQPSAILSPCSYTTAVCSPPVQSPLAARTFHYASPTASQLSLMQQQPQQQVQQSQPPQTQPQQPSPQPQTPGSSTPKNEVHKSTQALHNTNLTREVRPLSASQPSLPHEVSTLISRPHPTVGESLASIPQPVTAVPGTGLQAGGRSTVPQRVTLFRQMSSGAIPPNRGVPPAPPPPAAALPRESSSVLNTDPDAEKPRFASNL

HCN2 = target: T3, HCN2 (Homo sapiens, UniProt Q9UL51); settings: 50 μM; HCN2 selectively expressed in xenopus oocytes; cited from earlier work
T3 sequence (Q9UL51 1-889): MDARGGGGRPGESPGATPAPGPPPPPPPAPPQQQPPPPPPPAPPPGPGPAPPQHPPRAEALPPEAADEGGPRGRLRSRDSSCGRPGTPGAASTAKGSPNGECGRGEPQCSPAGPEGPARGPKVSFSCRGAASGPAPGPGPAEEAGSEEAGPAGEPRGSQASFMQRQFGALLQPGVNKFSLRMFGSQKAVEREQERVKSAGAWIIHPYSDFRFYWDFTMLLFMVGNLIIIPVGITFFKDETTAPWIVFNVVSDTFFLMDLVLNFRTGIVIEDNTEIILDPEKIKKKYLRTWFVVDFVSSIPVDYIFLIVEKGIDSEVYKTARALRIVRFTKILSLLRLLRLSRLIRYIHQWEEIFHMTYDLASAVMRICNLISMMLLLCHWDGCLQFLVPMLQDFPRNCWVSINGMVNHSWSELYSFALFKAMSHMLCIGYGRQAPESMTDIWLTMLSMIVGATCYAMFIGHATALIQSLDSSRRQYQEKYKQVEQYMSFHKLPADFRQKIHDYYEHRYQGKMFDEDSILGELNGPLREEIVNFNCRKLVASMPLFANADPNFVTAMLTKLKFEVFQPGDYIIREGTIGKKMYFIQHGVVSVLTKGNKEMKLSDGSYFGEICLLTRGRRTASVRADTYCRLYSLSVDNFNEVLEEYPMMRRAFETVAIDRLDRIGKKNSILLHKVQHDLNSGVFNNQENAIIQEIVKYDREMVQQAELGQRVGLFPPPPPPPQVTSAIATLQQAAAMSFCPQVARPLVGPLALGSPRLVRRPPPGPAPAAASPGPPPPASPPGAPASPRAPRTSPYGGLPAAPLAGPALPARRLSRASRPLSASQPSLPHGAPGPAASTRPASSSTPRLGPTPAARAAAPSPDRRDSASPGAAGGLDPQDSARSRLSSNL

BK ion channel = target: T4, BK ion channel (Homo sapiens, UniProt Q12791); test: Data assimilation of CA1 neuron current clamp recordings: predicted charge through BK channel before and after drug; assay type: cell-based, rodent
T4 construct: endogenous in cells; host or cells: hippocampal CA1 neuron

SK ion channel = test: Data assimilation of CA1 neuron current clamp recordings: predicted charge through SK channel before and after drug; assay type: cell-based, rodent; settings: 100 nM IbTX, 2000 ms prediction window, FIG. 12A
NaT ion channel = test: Data assimilation of CA1 neuron current clamp recordings: predicted charge through NaT channel before and after drug; assay type: cell-based, rodent; settings: 100 nM IbTX, 2000 ms prediction window, FIG. 12A
K ion channel = test: Data assimilation of CA1 neuron current clamp recordings: predicted charge through K channel before and after drug; assay type: cell-based, rodent; settings: 100 nM IbTX, 2000 ms prediction window, FIG. 12A
BK [α subunit only] = BK [α subunit only] (Homo sapiens, UniProt Q12791); settings: 100 nM; BK [α subunit only] selectively expressed in HEK293 cells; cited from earlier work
BK [α + β1] = BK [α + β1] (Homo sapiens, UniProt Q12791); settings: 100 nM; BK [α + β1] selectively expressed in HEK293 cells; cited from earlier work
BK [α + β3] = BK [α + β3] (Homo sapiens, UniProt Q12791); settings: 100 nM; BK [α + β3] selectively expressed in HEK293 cells; cited from earlier work
BK [α + β4] = BK [α + β4] (Homo sapiens, UniProt Q12791); settings: 100 nM; BK [α + β4] selectively expressed in HEK293 cells; cited from earlier work
Chain of BK [α + β4] (Q12791 whole entry): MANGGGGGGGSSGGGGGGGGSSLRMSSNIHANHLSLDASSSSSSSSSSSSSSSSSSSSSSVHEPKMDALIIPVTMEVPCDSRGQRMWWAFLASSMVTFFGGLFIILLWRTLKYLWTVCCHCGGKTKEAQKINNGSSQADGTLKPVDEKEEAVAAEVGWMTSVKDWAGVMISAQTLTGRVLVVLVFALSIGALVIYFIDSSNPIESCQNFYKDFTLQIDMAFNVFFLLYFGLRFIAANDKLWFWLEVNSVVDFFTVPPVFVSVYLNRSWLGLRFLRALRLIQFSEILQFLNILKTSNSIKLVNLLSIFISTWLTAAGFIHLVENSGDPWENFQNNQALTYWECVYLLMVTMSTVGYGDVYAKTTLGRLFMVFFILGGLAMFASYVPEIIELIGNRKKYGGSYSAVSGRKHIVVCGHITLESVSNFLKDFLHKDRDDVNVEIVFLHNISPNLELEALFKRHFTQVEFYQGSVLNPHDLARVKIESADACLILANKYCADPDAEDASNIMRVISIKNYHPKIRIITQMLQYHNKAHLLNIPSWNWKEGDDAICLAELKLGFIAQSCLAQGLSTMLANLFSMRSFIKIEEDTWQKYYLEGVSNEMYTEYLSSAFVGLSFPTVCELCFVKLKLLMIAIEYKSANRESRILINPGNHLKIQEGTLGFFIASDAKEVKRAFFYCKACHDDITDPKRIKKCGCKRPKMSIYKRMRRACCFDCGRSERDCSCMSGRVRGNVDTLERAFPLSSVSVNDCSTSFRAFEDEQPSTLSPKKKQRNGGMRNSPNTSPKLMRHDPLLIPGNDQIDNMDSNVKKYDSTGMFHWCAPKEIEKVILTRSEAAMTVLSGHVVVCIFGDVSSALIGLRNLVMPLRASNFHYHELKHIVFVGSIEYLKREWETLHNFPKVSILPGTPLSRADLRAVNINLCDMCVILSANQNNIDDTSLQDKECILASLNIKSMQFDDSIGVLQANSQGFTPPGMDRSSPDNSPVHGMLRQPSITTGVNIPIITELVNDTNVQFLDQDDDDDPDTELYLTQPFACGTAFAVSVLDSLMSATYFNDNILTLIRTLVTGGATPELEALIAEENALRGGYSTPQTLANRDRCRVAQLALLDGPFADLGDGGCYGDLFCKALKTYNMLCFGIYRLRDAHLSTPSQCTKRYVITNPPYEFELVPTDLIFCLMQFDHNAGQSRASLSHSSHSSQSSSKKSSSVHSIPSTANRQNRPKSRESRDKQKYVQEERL
Chain of BK [α + β4] (Q86W47 whole entry partner): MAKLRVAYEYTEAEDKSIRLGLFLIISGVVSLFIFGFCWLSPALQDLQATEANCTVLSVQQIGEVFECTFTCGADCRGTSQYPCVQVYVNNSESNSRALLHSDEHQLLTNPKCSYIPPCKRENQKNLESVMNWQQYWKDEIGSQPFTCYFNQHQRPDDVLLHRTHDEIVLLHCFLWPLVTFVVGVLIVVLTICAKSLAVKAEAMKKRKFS

T4 sequence (Q12791 whole entry): as the sequence (Q12791 whole entry) above
Chain of BK [α subunit only] (Q12791 whole entry): as above
Chain of BK [α + β1] (Q12791 whole entry): as above
Chain of BK [α + β1] (Q16558 whole entry partner): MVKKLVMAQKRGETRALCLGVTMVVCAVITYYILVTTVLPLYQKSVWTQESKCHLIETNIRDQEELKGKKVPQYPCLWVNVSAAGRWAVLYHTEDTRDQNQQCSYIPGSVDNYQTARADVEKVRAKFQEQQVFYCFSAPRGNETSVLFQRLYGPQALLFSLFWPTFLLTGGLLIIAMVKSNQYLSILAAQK
Chain of BK [α + β3] (Q12791 whole entry): as the sequence (Q12791 whole entry) above
Chain of BK [α + β3] (Q9NPA1 whole entry partner): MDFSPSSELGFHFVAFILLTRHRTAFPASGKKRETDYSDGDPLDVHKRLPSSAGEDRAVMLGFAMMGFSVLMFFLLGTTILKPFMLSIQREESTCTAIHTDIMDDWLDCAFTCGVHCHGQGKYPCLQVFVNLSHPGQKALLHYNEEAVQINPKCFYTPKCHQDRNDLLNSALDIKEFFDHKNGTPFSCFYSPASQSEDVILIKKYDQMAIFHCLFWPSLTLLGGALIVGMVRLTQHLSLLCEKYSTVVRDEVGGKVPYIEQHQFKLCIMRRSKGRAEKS
Chain of A-type [Kv1.4] (P22459 whole entry): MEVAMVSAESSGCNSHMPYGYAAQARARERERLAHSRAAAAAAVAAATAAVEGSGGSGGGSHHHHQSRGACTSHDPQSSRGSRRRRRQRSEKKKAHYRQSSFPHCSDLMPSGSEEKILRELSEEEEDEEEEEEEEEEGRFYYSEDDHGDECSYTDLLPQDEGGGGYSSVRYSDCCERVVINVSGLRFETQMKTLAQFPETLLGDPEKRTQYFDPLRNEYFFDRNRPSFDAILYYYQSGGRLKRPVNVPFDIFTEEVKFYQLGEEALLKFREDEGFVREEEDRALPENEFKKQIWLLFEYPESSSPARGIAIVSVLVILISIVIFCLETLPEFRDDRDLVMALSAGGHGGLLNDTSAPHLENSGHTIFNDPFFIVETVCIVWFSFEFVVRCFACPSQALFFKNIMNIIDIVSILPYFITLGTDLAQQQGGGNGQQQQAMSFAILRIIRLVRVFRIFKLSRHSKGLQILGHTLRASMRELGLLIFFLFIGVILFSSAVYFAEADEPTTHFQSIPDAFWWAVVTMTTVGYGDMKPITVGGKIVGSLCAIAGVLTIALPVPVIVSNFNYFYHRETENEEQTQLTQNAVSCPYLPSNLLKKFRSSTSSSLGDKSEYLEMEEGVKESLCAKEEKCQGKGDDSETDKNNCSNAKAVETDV

Nc1ccncc1 [4-AP, 4-aminopyridine]
MEAN PREDICTED INHIBITION (Results) (A-type K+ ion channel; 300 μM applied, A-type K+ current, CA1 neuron, mean): 19.0% | MEDIAN PREDICTED INHIBITION (Results) (A-type K+ ion channel; 300 μM applied, A-type K+ current, CA1 neuron, median): 24.3% | EXPECTED DEGREE OF BLOCK AT APPLIED CONCENTRATION (A-type [Kv1.4]): ~25% | EXPECTED DEGREE OF BLOCK AT APPLIED CONCENTRATION (A-type [Kv4.2]): ~13%

CCN(c1ccccc1)c1cc(=NC)n(C)c(C)n1.Cl [ZD 7288]
EXPECTED DEGREE OF BLOCK AT APPLIED CONCENTRATION (HCN1): ~63% | EXPECTED DEGREE OF BLOCK AT APPLIED CONCENTRATION (HCN2): ~80%

Iberiotoxin (QFTDVDCSVSKECWSVCKDLFGVDRGKCMGKKCRCYQ; UniProt P24663 1-37, looked up)
Effect on total predicted charge (spike normalised), pre- vs post-drug (BK ion channel; 100 nM IbTX, BK ion channel, 2000 ms prediction window, FIG. 12A, 12D): does have a noticeable effect | MEAN PREDICTED INHIBITION (Results) (BK ion channel; 100 nM applied, BK current, CA1 neuron, mean): 14.8% | MEDIAN PREDICTED INHIBITION (Results) (BK ion channel; 100 nM applied, BK current, CA1 neuron, median): 12.1% | Effect on total predicted charge (spike normalised), pre- vs post-drug (SK ion channel): does not have a visible effect | Effect on total predicted charge (spike normalised), pre- vs post-drug (A-type K+ ion channel; 100 nM IbTX, A-type K+ ion channel, 2000 ms prediction window, FIG. 12A): does not have a visible effect | Effect on total predicted charge (spike normalised), pre- vs post-drug (NaT ion channel): does not have a visible effect | Effect on total predicted charge (spike normalised), pre- vs post-drug (K ion channel): does not have a visible effect | EXPECTED DEGREE OF BLOCK AT APPLIED CONCENTRATION (BK [α subunit only]): 86% | EXPECTED DEGREE OF BLOCK AT APPLIED CONCENTRATION (BK [α + β1]): 12% | EXPECTED DEGREE OF BLOCK AT APPLIED CONCENTRATION (BK [α + β3]): 77% | EXPECTED DEGREE OF BLOCK AT APPLIED CONCENTRATION (BK [α + β4]): Insensitive
